A short description of this test: Inhibition concentration against C6 […] cells by the 3-(4,5-dimethylthiazol-2-yl)-2,5-diphenyltetrazoliumbromide (MTT) method. The test is classed as functional, cell-based.

In turn, CISPLATIN had an IC50 of 5.27 µM.

The IC50 is the concentration at which inhibition is half-maximal. The low end stands for inhibition by little substance, the high end for a need for much substance.

Source of the values: ChEMBL document CHEMBL1142846, “Synthesis and cytotoxic activity of platinum complex immobilized by branched polyethylene glycol” (Bioorg Med Chem Lett, 2005).
